Earlier results on one molecule are cited in patent US20260263394A1, “MEDICAL PATCH […] […] AGENT” (LTS LOHMANN THERAPIE-SYSTEME AG, priority 2023, published 2026).

For series [1] the following is noted: sub-microgram (less than 1/1,000,000th of a gram) quantities, oral.
The next series deals with TRPV1 (Homo sapiens, UniProt Q8NER1). To be noted: relative to capsaicin.
Chain of TRPV1 (Q8NER1 whole entry, species assumed): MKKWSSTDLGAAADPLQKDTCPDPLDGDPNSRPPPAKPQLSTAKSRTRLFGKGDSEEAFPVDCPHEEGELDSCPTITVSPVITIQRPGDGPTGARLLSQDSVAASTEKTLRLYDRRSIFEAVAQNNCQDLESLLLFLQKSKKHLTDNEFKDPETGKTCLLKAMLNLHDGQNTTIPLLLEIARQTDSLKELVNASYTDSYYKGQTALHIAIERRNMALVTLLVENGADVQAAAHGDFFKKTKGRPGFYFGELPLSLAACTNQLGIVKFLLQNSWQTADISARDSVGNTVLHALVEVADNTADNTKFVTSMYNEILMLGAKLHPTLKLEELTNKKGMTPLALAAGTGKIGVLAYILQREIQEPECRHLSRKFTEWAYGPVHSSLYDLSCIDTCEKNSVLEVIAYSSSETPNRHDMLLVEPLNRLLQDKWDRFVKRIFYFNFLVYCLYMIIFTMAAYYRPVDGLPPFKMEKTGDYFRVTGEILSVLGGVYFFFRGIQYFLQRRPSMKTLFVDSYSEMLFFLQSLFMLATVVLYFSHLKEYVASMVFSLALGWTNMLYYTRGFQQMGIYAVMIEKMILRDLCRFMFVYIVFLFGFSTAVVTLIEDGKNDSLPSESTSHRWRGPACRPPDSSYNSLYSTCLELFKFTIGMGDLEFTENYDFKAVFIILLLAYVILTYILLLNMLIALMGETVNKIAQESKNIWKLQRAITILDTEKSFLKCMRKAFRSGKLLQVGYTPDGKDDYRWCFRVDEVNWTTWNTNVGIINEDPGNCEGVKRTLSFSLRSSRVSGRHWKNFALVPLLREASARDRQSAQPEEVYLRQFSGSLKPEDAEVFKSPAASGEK

In the case of `C=C(C)[C@]12C[C@@H](C)[C@@]34O[C@@](Cc5ccccc5)(O[C@@H]1[C@@H]3C=C(COC(=O)Cc1ccc(O)c(OC)c1)C[C@]1(O)C(=O)C(C)=C[C@@H]41)O2` [Resiniferatoxin, [(1R,2R,6R,10S,11R,13R, 15R, 17R)-13-benzyl-6-hydroxy-4,17-dimethyl-5-oxo-15-(prop-1-en-2-yl)-12,14,18-trioxapentacyclo [11.4.1.0^1,10.0^2,6.0^11,15]octadeca-3,8-dien-8-yl]methyl 2-(4-hydroxy-3-methoxyphenyl)acetate], the “effect when ingested orally” value in series [1] is reported as “severe burning pain”. Moreover, on TRPV1, the “times higher binding affinity for TRPV1 than capsaicin” value was “about 500 times”.
